# Assay: Concentration required to achieve 50% protection of MT-4 cell from the HIV-1 induced cytopathogenicity was determined by the MTT method
row,Structure (SMILES),EC50 [µM]
1,O=C(c1ccco1)N(C(=S)OCCc1ccccc1)c1ccccc1 [(Furan-2-carbonyl)-phenyl-thiocarbamic acid O-phenethyl ester],4.3
2,"O=C1c2ccccc2C(=O)N1CCOC(=S)N(C(=O)c1cccs1)c1cccc(C(F)(F)F)c1 [(Thiophene-2-carbonyl)-(3-trifluoromethyl-phenyl)-thiocarbamic acid O-[2-(1,3-dioxo-1,3-dihydro-isoindol-2-yl)-ethyl] ester]",11
3,"Cc1ccccc1N(C(=O)c1cccs1)C(=S)OCCN1C(=O)c2ccccc2C1=O [(Thiophene-2-carbonyl)-o-tolyl-thiocarbamic acid O-[2-(1,3-dioxo-1,3-dihydro-isoindol-2-yl)-ethyl] ester]",11
4,CC(=O)Oc1ccccc1C(=O)N(C(=S)OCCOc1ccccc1)c1ccccc1 [Acetic acid 2-(2-phenoxy-ethoxythiocarbonyl)-phenyl-aminocarbonyl)-phenyl ester],9.5
5,"O=C1c2ccccc2C(=O)N1CCOC(=S)N(C(=O)c1ccccc1)c1ccc(Br)cc1 [Benzoyl-(4-bromo-phenyl)-thiocarbamic acid O-[2-(1,3-dioxo-1,3-dihydro-isoindol-2-yl)-ethyl] ester]",0.035
6,O=C(c1ccccc1)N(C(=S)OCCOc1ccccc1)c1ccc(F)cc1 [Benzoyl-(4-fluoro-phenyl)-thiocarbamic acid O-(2-phenoxy-ethyl) ester],4
7,O=C(c1ccccc1)N(C(=S)OCCOc1ccccc1)C1CCCCC1 [Benzoyl-cyclohexyl-thiocarbamic acid O-(2-phenoxy-ethyl) ester],200
8,CC(COc1ccccc1)OC(=S)N(C(=O)c1ccccc1)c1ccccc1 (configuration not stated) [Benzoyl-phenyl-thiocarbamic acid O-(1-methyl-2-phenoxy-ethyl) ester],1.3
9,O=C(c1ccccc1)N(C(=S)OCCOc1ccccc1)c1ccccc1 [Benzoyl-phenyl-thiocarbamic acid O-(2-phenoxy-ethyl) ester],8
10,O=C(c1ccccc1)N(C(=S)OCCSc1ccccc1)c1ccccc1 [Benzoyl-phenyl-thiocarbamic acid O-(2-phenylsulfanyl-ethyl) ester],> 44
11,"O=C1c2ccccc2C(=O)N1CCOC(=S)N(C(=O)c1ccccc1)c1ccccc1 [Benzoyl-phenyl-thiocarbamic acid O-[2-(1,3-dioxo-1,3-dihydro-isoindol-2-yl)-ethyl] ester]",0.4
12,O=C(c1ccccc1)N(C(=S)OCCc1ccccc1)c1ccccc1 [Benzoyl-phenyl-thiocarbamic acid O-phenethyl ester],4.2
13,S=C(NCCc1ccccn1)Nc1ccc(Br)cn1 [N-(2-(2-Pyridylethyl))-N -(2-(5-bromopyridyl))thiourea],0.02
14,CC(COc1ccccc1)OC(=S)N(C(=O)Oc1ccccc1)c1ccccc1 (configuration not stated) [O-(1-methyl-2-phenoxyethyl) O-phenyl phenylimidothiodicarbonate],> 200
15,CCCCOC(=O)N(C(=S)OC(C)COc1ccccc1)c1ccccc1 (configuration not stated) [O-butyl O-(1-methyl-2-phenoxyethyl) phenylimidothiodicarbonate],47
16,O=C(/C=C/c1ccccc1)N(C(=S)OCCOc1ccccc1)c1ccccc1 [Phenyl-(3-phenyl-acryloyl)-thiocarbamic acid O-(2-phenoxy-ethyl) ester],7.7
17,CC(COc1ccccc1)OC(=S)N(C(=O)c1cccs1)c1ccccc1 (configuration not stated) [Phenyl-(thiophene-2-carbonyl)-thiocarbamic acid O-(1-methyl-2-phenoxy-ethyl) ester],2
18,O=C(c1cccs1)N(C(=S)OCCOc1ccccc1)c1ccccc1 [Phenyl-(thiophene-2-carbonyl)-thiocarbamic acid O-(2-phenoxy-ethyl) ester],8.6

# Further lines, results first:
row,EC50 [µM],Structure (SMILES)
1,10,"Cc1cccc(N(C(=O)c2cccs2)C(=S)OCCN2C(=O)c3ccccc3C2=O)c1 [(Thiophene-2-carbonyl)-m-tolyl-thiocarbamic acid O-[2-(1,3-dioxo-1,3-dihydro-isoindol-2-yl)-ethyl] ester]"
2,0.4,"Cc1ccc(N(C(=O)c2cccs2)C(=S)OCCN2C(=O)c3ccccc3C2=O)cc1 [(Thiophene-2-carbonyl)-p-tolyl-thiocarbamic acid O-[2-(1,3-dioxo-1,3-dihydro-isoindol-2-yl)-ethyl] ester]"
3,> 38.3,O=C(c1ccccc1)N(C(=S)OCc1ccco1)c1ccccc1 [Benzoyl-phenyl-thiocarbamic acid O-furan-2-ylmethyl ester]
4,0.025,"O=C1c2ccccc2C(=O)N1CCOC(=S)N(C(=O)c1ccc(Cl)cc1)c1ccc(Cl)cc1 [O-2-(1,3-dioxoisoindolin-2-yl)ethyl 4-chlorobenzoyl(4-chlorophenyl)carbamothioate]"
5,0.007,"O=C1c2ccccc2C(=O)N1CCOC(=S)N(C(=O)c1ccco1)c1ccc(Cl)cc1 [O-2-(1,3-dioxoisoindolin-2-yl)ethyl 4-chlorophenyl(furan-2-carbonyl)carbamothioate]"
6,0.1,"O=C1c2ccccc2C(=O)N1CCOC(=S)N(C(=O)c1ccccc1)c1ccc(Cl)cc1 [O-2-(1,3-dioxoisoindolin-2-yl)ethyl benzoyl(4-chlorophenyl)carbamothioate]"
7,131,CCCOC(=O)N(C(=S)OC(C)COc1ccccc1)c1ccccc1 (configuration not stated) [O-(1-methyl-2-phenoxyethyl) O-propyl phenylimidothiodicarbonate]
8,9.6,"COc1cc(C(=O)N(C(=S)OCCOc2ccccc2)c2ccccc2)cc(OC)c1OC [Phenyl-(3,4,5-trimethoxy-benzoyl)-thiocarbamic acid O-(2-phenoxy-ethyl) ester]"
9,4.5,O=C(/C=C/c1ccccc1)N(C(=S)OCCc1ccccc1)c1ccccc1 [Phenyl-(3-phenyl-acryloyl)-thiocarbamic acid O-phenethyl ester]

# Source: BindingDB's records for doi:10.1021/jm0209984 (Universit&#224, 2003)
